The values that follow come from ChEMBL document CHEMBL4190162, “SAR and identification of 2-(quinolin-4-yloxy)acetamides as Mycobacterium tuberculosis cytochrome bc1 inhibitors” (Medchemcomm, 2016).

The nature of series [1]: Cytotoxicity against human HepG2 cells after 24 to 48 hrs in presence of glucose by trypan blue dye-based hemocytometric method. The format is cell-based.
Series [2] deals with Mycobacterium tuberculosis H37Rv. Put plainly: Inhibition of Mycobacterium tuberculosis H37Rv cytochrome bc1 oxidase assessed as reduction in ATP level measured up to 24 hrs under anaerobic condition.
Series [3] deals with Mycobacterium tuberculosis. Put plainly: Antimycobacterial activity against Mycobacterium tuberculosis H37Rv after 2 weeks by microplate alamar blue assay. The note with it: 336 h. Type of series: functional.
For series [4], the system named is Mycobacterium tuberculosis. Put plainly: Antimycobacterial activity against Mycobacterium tuberculosis H37Rv BSG001. The format is functional, organism-based.
Series [5] has as its system Mycobacteroides abscessus. The series is described as follows: Antibacterial activity against Mycobacterium abscessus. Type of series: functional, organism-based.
Series [6] concerns Mycolicibacterium smegmatis. The series is described as follows: Antibacterial activity against Mycobacterium smegmatis. The format is functional, organism-based.
The subject of another series is Staphylococcus aureus. The series is described as follows: Antibacterial activity against Staphylococcus aureus XEN36. Type of series: functional, organism-based.
The subject of series [7] is Mycobacterium tuberculosis. Put plainly: Antimycobacterial activity against Mycobacterium tuberculosis H37Rv measured after 2 weeks. Type of series: functional. The note with it: 336 h.
The test system of the next series is Escherichia coli. The series is described as follows: Antibacterial activity against Escherichia coli 25922. The note with it: ATCC 25922. The format is functional, organism-based.
The subject of series [8] is Mycobacterium tuberculosis. Put plainly: Antimycobacterial activity against Mycobacterium tuberculosis H37Rv measured after 1 week. The note with it: 168 h. The format is functional.
Series [9] is described as follows: Cytotoxicity against human HepG2 cells after 24 to 48 hrs in presence of galactose by trypan blue dye-based hemocytometric method. Type of series: cell-based.

Converted amounts (≈) assume the structure as drawn. The source made the active and inactive calls. A value given as a limit tells only on which side of the number the result lay.

For orientation: CC50 means the concentration that lowers cell viability or growth by half. As usually defined, the MIC is the smallest concentration in the dilution series that meets the test's criterion for growth inhibition. Low values mean a more susceptible organism, high ones a less susceptible organism. As to `COc1ccc2nc(C)cc(OCC(=O)NCCc3ccccc3)c2c1`, the CC50 in series [1] was 61.4 µM; in [9] it was 83.9 µM. In [2], the inhibition entry was “Active”. The MIC is 54.2 µM (≈ 19 µg/mL) in series [3], above 143 µM in series [7] and 143 µM (≈ 50 µg/mL) in series [8]. Moreover, the result (in [4]; in series [5]; in series [6]; with Staphylococcus aureus; in the series with Escherichia coli) was inactive.
Consider `COc1ccc2nc(C)cc(OCC(=O)Nc3ccc(-c4ccccc4)cc3)c2c1`, for which the 50% cytotoxic concentration (CC50) in series [1] and in series [9] was above 126 µM in each case. Besides, the inhibition result in series [2] was “Active”. The values for the MIC in [3], in [7] and in [8] were 1.51 µM (≈ 0.602 µg/mL), above 125 µM and above 125 µM, respectively. The outcome (in series [4]; in series [5]; in series [6]; with Staphylococcus aureus; in the series with Escherichia coli) was inactive.
For the molecule `COc1ccc2nc(C)cc(OCC(=O)Nc3cccc(Br)c3)c2c1`, the CC50 in series [1] and in series [9] was above 125 µM throughout. For the same molecule, the inhibition result in series [2] was “Active”. Besides, the results for the MIC in [3], in series [7] and in series [8] were above 125 µM, above 125 µM and 92.2 µM (≈ 37 µg/mL), respectively. Moreover, the outcome (in [4]; in series [5]; in [6]; with Staphylococcus aureus; in the series on Escherichia coli) was inactive.
`COc1ccc2nc(C)cc(OCC(=O)NCCc3ccc(OC)c(OC)c3)c2c1`: the CC50 in series [1] and in series [9] was above 122 µM in each case. The inhibition result in series [2] is “Active”. Besides, the MIC in series [3] is 122 µM (≈ 50.1 µg/mL); in [7] it was above 122 µM; in [8], above 122 µM. Also, the outcome (in series [4]; in series [5]; in [6]; in the series on Staphylococcus aureus; in the series on Escherichia coli) was inactive.
On to `COc1ccccc1NC(=O)COc1cc(C)nc2ccc(Br)cc12`, for which the CC50 in [1] and in series [9] was above 125 µM in each case. In series [2], the inhibition result is “Active”. The values for the minimum inhibitory concentration (MIC) in series [3], in series [7] and in [8] were above 125 µM, above 125 µM and 23.4 µM (≈ 9.4 µg/mL), respectively. The outcome (in [4]; in series [5]; in [6]; in the series with Staphylococcus aureus; in the series with Escherichia coli) was inactive.
As to `COc1ccc2nc(C)cc(OCC(=O)NCc3ccc4c(c3)OCO4)c2c1`, the CC50 is above 131 µM in series [1] and 86.9 µM in series [9]. The inhibition result in series [2] was “Active”. In addition, the minimum inhibitory concentration (MIC) was 0.53 µM (≈ 0.202 µg/mL) in series [3], 24.7 µM (≈ 9.4 µg/mL) in series [7] and 0.53 µM (≈ 0.202 µg/mL) in series [8]. Also, the result (in series [4]; in [5]; in series [6]; with Staphylococcus aureus; in the series on Escherichia coli) was inactive.
As to `COc1ccc2nc(C)cc(OCC(=O)Nc3ccc4c(c3)OCO4)c2c1`, the CC50 in series [1] was 80 µM; in series [9], 39.6 µM. For the same molecule, the inhibition result in series [2] was “Active”. Further, the MIC is 2.13 µM (≈ 0.78 µg/mL) in series [3], above 136 µM in series [7] and 4.26 µM (≈ 1.56 µg/mL) in series [8]. Besides, the result (in series [4]; in series [5]; in series [6]; with Staphylococcus aureus; with Escherichia coli) was inactive.
